Assay results from patent publication US20230103631A1, “PEPTIDES AS SELECTIVE GIP RECEPTOR AGONISTS” (Sanofi, priority 2020, published 2023).
*1 amine or outer side, *2 acyl side, *3 side chain or, on linkers, in order; H or OH if unused. Where a SMILES comes first, the peptide text is derived from it. Where no end group is shown, it is not given here. Side-chain parts run from the residue outwards. [ ]: non-standard residue; d: D form. The star is where a group is joined. C18 diacid = O=C(O)CCCCCCCCCCCCCCCCC(=O)*; γGlu = O=C(O)[C@H](CCC(=O)[*:2])N[*:1]; NMeY = CN[C@@H](Cc1ccc(O)cc1)C(=O)O; AEEA = NCCOCCOCC(=O)O; Aib = CC(C)(N)C(=O)O

Legend:
C57Bl/6 mice = assay: Intraperitoneal glucose tolerance test (ipGTT) after s.c. treatment; type: in vivo; conditions: 10 nmol/kg s.c. 6 h before i.p. glucose load, mean ± SEM
Method: Healthy, normoglycemic male C57Bl/6NCrl mice were ordered in an age of 9-10 weeks with an approximate body weight (BW) of 24-26 g at Charles River Laboratories Deutschland GmbH, 97633 Sulzfeld, Germany. Mice were shipped grouped housed (N=4 per cage), acclimatized for one week and remained grouped housed throughout the entire study. Mice were housed under vivarium conditions that included a 12 h light/dark cycle (light phase 06:00 AM-06:00 PM), mean room temperature of 22±2° C. and a relative mean humidity of 55±10%. All animals had free access to food (Ssniff R/M-H diet) and water prior to study start.
The primary objective of the study was to investigate the compound-induced lowering of the blood glucose excursion and improvement of glucose tolerance in a mouse ipGTT setting and therefore the primary parameters included blood glucose, delta blood glucose (normalized to the time point just prior to the i.p. glucose challenge, t=0 h) and their respective calculated area under curve (AUC) values. The study was performed as an acute, single dosing study with 6 groups and the male animals were randomly divided to groups of 7-8 mice per group. Dose-dependent pharmacodynamic blood glucose lowering efficacy of the GIPR agonist was analyzed with s.c. injections 6 h before the i.p. glucose load in the dose range from 3 up to 100 nmol/kg and compared to the vehicle group as well as the semaglutide positive control at a dose of 10 nmol/kg.
In more detail, mice were fed overnight and on the following morning brought to the lab with food removed but ad libitum access to water. Blood samplings (5 μl) were performed at: −6.5, −0.5, 0, 0.17, 0.5, 1, 1.5, 2 and 3 h before and after the glucose bolus of 1 g glucose per kg BW i.p. given at time point t=0 h. On time point t=0.17 h an additional K-EDTA plasma sample from 60-80 μl blood was taken for plasma insulin analysis. Blood was withdrawn from the tip of the tail. The GIPR agonist and semaglutide were dissolved in 10 mM phosphate buffer pH 7.4 with 2.3% glycerol and 0.01% polysorbat 20 (vehicle) and s.c. treatment was performed −6 h before the glucose load (t=0 h) using an injection volume of 5 ml/kg. The injection solutions were freshly prepared prior to the experiment using sterile filtered vehicle solution.
Blood glucose was determined enzymatically (Gluco-quant® Glucose/HK kit on Roche/Hitachi 912). Plasma insulin was determined using a mouse/rat insulin sandwich immunoassay kit from Meso Scale Discovery.
All data were collected using Microsoft Excel. None of the data were collected online. The results are expressed as means±standard error of the mean (SEM). As primary study parameters, blood glucose, baseline (time point t=0 h) subtracted delta blood glucose and their respective calculated area under curve (AUC) values were determined. The respective AUC data were calculated using the trapezoid rule for the time period t=0 h until t=2 h.
The statistical analysis of the ipGTT blood glucose excursion data response following subcutaneous compound or vehicle treatment was performed on the calculated AUC values of blood glucose raw data as well as the calculated AUC values for baseline subtracted delta blood glucose data. In a first step the Levene's test was used to test for equality of variances between groups. Where Levene's test was significant (p s 0.05), a rank transformation of the calculated AUC data was applied to stabilize the variances before ANOVA analysis was conducted. Where Levene's test was not significant (p>0.05) ANOVA was conducted without prior rank transformation. In a second step a One-way ANOVA analysis for factor treatment followed by Dunnett's multiple comparisons test vs. vehicle group was used to test for statistical differences. Different levels of significance were defined as *=p<0.05, **=p<0.001, ***=p<0.0001. All analyses were performed using SAS (version 9.4) under Linux via the interface software EverSt@t V6.1. […]

[1] = target: human GLP-1 receptor (hGLP-1R) (Homo sapiens, UniProt P43220); assay: cAMP HTRF assay, HEK-293 cell line over-expressing human GLP-1 receptor; type: cell-based; conditions: HEK-293, cAMP, 0% HSA
Method: Each vial contained 1.8 ml cells. The vials were slowly frozen to −80° C. in isopropanol, and then transferred in liquid nitrogen for storage.
Prior to their use, frozen cells were thawed quickly at 37° C. and washed (5 min at 900 rpm) with 20 ml cell buffer (1× HBSS; 20 mM HEPES, plus 0.1% HSA if indicated in Example conditions).
For measurement of cAMP generation, 5 μl cells (final 5000 cells/well) and 5 μl of test compound were added to a 384-well plate, followed by incubation for 30 min at room temperature.
The cAMP generated was determined using a kit from Cisbio Corp. based on HTRF (Homogenous Time Resolved Fluorescence). The cAMP assay was performed according to manufacturer's instructions (Cisbio).

physchem = type: physicochemical; conditions: for Soluble amount: 24 h, pH 7.4; for solubility at 24 h: pH 7.4, Soluble amount
Method: Prior to the solubility measurement of a peptide batch, its purity was determined through UHPLC/MS. […] Therefore, solutions from solid samples were prepared in a buffer system with a concentration of 10 mg/ml compound based on the previously determined % purity: Solubility buffer system A) 100 mM phosphate buffer pH 7.4 […] Solubility buffer system C) 100 mM phosphate buffer pH 7.4, 2.7 mg/ml m-cresol UHPLC-UV was performed after 1 h of gentle agitation and storage at 5° C. over night (24 h) from the supernatant, which was obtained after 15 min of centrifugation at 2500 RCF (relative centrifugal acceleration). […] The different UV extinction coefficients of sample and reference peptide were calculated based on the different amino acid sequences and considered in the concentration calculation. The analytical method used was Analytical UHPLC Method A. Peptide samples were prepared in solubility buffer system A or C and solubility was assessed as described in Methods.

human GLP-1 receptor [2] = target: T1, human GLP-1 receptor (human, UniProt P43220 24-463); assay: cell-based or functional assay
human GIP receptor [3] = target: T2, human GIP receptor (human, UniProt P48546 22-466); assay: cell-based or functional assay
T2 sequence (looked up): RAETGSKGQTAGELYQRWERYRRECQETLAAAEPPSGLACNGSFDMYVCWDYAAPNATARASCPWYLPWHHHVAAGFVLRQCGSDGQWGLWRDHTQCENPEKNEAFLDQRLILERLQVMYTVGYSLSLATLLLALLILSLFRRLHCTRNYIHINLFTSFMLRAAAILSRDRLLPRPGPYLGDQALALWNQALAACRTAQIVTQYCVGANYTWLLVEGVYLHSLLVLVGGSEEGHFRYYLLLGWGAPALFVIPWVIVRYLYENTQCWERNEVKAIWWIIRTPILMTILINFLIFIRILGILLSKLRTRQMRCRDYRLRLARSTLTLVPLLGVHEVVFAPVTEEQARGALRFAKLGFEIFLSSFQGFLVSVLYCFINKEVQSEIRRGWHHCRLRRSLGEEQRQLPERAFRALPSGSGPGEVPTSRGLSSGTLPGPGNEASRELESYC

human GIP receptor [4] = target: T2, human GIP receptor; assay: cell-based or functional assay; remark: listed apart in the source
human GLP-1 receptor [5] = target: T1, human GLP-1 receptor; assay: displacement of [125I]GLP-1 from hGLP-1R HEK-293 membranes, SPA

Chain of human GLP-1 receptor (hGLP-1R) (P43220 24-463): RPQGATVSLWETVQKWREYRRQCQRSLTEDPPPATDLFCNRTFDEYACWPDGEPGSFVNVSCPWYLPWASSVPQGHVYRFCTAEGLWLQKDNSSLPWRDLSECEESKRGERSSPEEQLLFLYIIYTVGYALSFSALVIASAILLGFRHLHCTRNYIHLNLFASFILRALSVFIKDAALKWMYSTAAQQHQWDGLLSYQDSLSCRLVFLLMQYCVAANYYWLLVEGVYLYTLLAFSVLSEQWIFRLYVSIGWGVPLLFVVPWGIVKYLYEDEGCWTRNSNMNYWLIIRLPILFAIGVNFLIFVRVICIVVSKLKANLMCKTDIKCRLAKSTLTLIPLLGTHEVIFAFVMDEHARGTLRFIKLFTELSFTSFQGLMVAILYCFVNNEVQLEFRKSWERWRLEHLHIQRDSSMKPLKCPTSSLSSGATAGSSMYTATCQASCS

With semaglutide [reference compound] the “Incremental blood glucose concentration AUCi” value (C57Bl/6 mice; vehicle +4.93 ± 0.324) was “+1.15 ± 0.255 mmol/L* 0-2 h” and the “Blood glucose concentration AUC” value (C57Bl/6 mice; vehicle +22.15 ± 0.662) was “+10.21 ± 0.503 mmol/L* 0-2 h”.

For `CC[C@H](C)[C@H](NC(=O)[C@H](Cc1ccccc1)NC(=O)[C@H](CCC(=O)O)NC(=O)[C@H](CCC(=O)O)NC(=O)[C@H](CCC(N)=O)NC(=O)[C@H](Cc1c[nH]cn1)NC(=O)[C@@H](NC(=O)[C@H](CCCNC(=N)N)NC(=O)[C@H](CC(=O)O)NC(=O)[C@H](CCCCNC(=O)COCCOCCNC(=O)COCCOCCNC(=O)CC[C@H](NC(=O)CCCCCCCCCCCCCCCCC(=O)O)C(=O)O)NC(=O)C(C)(C)NC(=O)[C@@H](NC(=O)[C@H](CO)NC(=O)[C@H](CC(C)C)NC(=O)[C@H](CC(=O)O)NC(=O)[C@H](CO)NC(=O)[C@@H](NC(=O)[C@H](Cc1ccccc1)NC(=O)[C@@H](NC(=O)CNC(=O)[C@H](CCC(=O)O)NC(=O)C(C)(C)NC(=O)[C@H](Cc1ccc(O)cc1)NC)[C@@H](C)O)[C@@H](C)CC)[C@@H](C)CC)[C@@H](C)CC)C(=O)N[C@@H](CCC(=O)O)C(=O)N[C@@H](Cc1c[nH]c2ccccc12)C(=O)N[C@@H](CC(C)C)C(=O)N[C@@H](CC(C)C)C(=O)N[C@@H](C)C(=O)N[C@@H](CCC(N)=O)C(=O)NCC(=O)N1CCC[C@H]1C(=O)N[C@@H](CO)C(=O)N[C@@H](CO)C(=O)NCC(=O)N[C@@H](C)C(=O)N1CCC[C@H]1C(=O)N1CCC[C@H]1C(=O)N1CCC[C@H]1C(=O)N[C@@H](CO)C(N)=O` [SEQ ID NO: 13, MeHN-Y-Aib-E-G-T-F-I-S-D-I-S-I-Aib-K[{AEEA}2-gGlu-C18OH]-DRIHQEEFIEWILAQGPSSGAPPPS-NH2] (H-[NMeY][Aib]EGTFISDLSI[Aib]K([AEEA-AEEA-γGlu-C18 diacid])DRIHQEEFIEWLLAQGPSSGAPPPS-NH2), the EC50 [1] was > 10 nM, the Soluble amount (physchem) was >11.0 mg/mL and the solubility at 24 h (physchem) was > 10200 µg/mL.

For `CC[C@H](C)[C@H](NC(=O)[C@H](Cc1ccccc1)NC(=O)[C@H](CCC(=O)O)NC(=O)[C@H](CCC(=O)O)NC(=O)[C@H](CCC(N)=O)NC(=O)[C@H](Cc1c[nH]cn1)NC(=O)[C@@H](NC(=O)[C@H](CCCNC(=N)N)NC(=O)[C@H](CC(=O)O)NC(=O)[C@H](CCCCNC(=O)COCCOCCNC(=O)COCCOCCNC(=O)COCCOCCNC(=O)CC[C@H](NC(=O)CCCCCCCCCCCCCCCCC(=O)O)C(=O)O)NC(=O)C(C)(C)NC(=O)[C@@H](NC(=O)[C@H](CO)NC(=O)[C@H](CC(C)C)NC(=O)[C@H](CC(=O)O)NC(=O)[C@H](CO)NC(=O)[C@@H](NC(=O)[C@H](Cc1ccccc1)NC(=O)[C@@H](NC(=O)CNC(=O)[C@H](CCC(=O)O)NC(=O)C(C)(C)NC(=O)[C@@H](N)Cc1ccc(O)cc1)[C@@H](C)O)[C@@H](C)CC)[C@@H](C)CC)[C@@H](C)CC)C(=O)N[C@@H](CCC(=O)O)C(=O)N[C@@H](Cc1c[nH]c2ccccc12)C(=O)N[C@@H](CC(C)C)C(=O)N[C@@H](CC(C)C)C(=O)N[C@@H](C)C(=O)N[C@@H](CCC(N)=O)C(=O)NCC(=O)N1CCC[C@H]1C(=O)N[C@@H](CO)C(=O)N[C@@H](CO)C(=O)NCC(=O)N[C@@H](C)C(=O)N1CCC[C@H]1C(=O)N1CCC[C@H]1C(=O)N1CCC[C@H]1C(=O)N[C@@H](CO)C(N)=O` [SEQ ID NO: 12, H2N-Y-Aib-E-G-T-F-I-S-D-I-S-I-Aib-K[{AEEA}3-gGlu-C18OH]-DRIHQEEFIEWILAQGPSSGAPPPS-NH2] (H-Y[Aib]EGTFISDLSI[Aib]K([AEEA-AEEA-AEEA-γGlu-C18 diacid])DRIHQEEFIEWLLAQGPSSGAPPPS-NH2), the EC50 [1] was > 10 nM, the Soluble amount (physchem) was >9.1 mg/mL and the solubility at 24 h (physchem) was > 8800 µg/mL.

B1: SEQ ID NO: 4 (peptide)
peptide: Y[Aib]EGTFISDLSI[Aib]K([AEEA-AEEA-γGlu-C18 diacid])DRIHQ[Aib]EFIEWLLAQGPSSGAPPPS-NH2
modifications: N-terminus assumed
SMILES: CC[C@H](C)[C@H](NC(=O)[C@H](CCCNC(=N)N)NC(=O)[C@H](CC(=O)O)NC(=O)[C@H](CCCCNC(=O)COCCOCCNC(=O)COCCOCCNC(=O)CC[C@H](NC(=O)CCCCCCCCCCCCCCCCC(=O)O)C(=O)O)NC(=O)C(C)(C)NC(=O)[C@@H](NC(=O)[C@H](CO)NC(=O)[C@H](CC(C)C)NC(=O)[C@H](CC(=O)O)NC(=O)[C@H](CO)NC(=O)[C@@H](NC(=O)[C@H](Cc1ccccc1)NC(=O)[C@@H](NC(=O)CNC(=O)[C@H](CCC(=O)O)NC(=O)C(C)(C)NC(=O)[C@@H](N)Cc1ccc(O)cc1)[C@@H](C)O)[C@@H](C)CC)[C@@H](C)CC)C(=O)N[C@@H](Cc1c[nH]cn1)C(=O)N[C@@H](CCC(N)=O)C(=O)NC(C)(C)C(=O)N[C@@H](CCC(=O)O)C(=O)N[C@@H](Cc1ccccc1)C(=O)N[C@H](C(=O)N[C@@H](CCC(=O)O)C(=O)N[C@@H](Cc1c[nH]c2ccccc12)C(=O)N[C@@H](CC(C)C)C(=O)N[C@@H](CC(C)C)C(=O)N[C@@H](C)C(=O)N[C@@H](CCC(N)=O)C(=O)NCC(=O)N1CCC[C@H]1C(=O)N[C@@H](CO)C(=O)N[C@@H](CO)C(=O)NCC(=O)N[C@@H](C)C(=O)N1CCC[C@H]1C(=O)N1CCC[C@H]1C(=O)N1CCC[C@H]1C(=O)N[C@@H](CO)C(N)=O)[C@@H](C)CC
notes: Exendin-4 derived synthetic lipidated peptide of formula I
In the case of B1, the “EC50 hGLP-1R 0% HSA, cAMP in HEK-293 cells” value (human GLP-1 receptor [2]) is reported as > 10 nM, the “EC50 hGIPR 0% HSA, cAMP in HEK-293 cells” value (human GIP receptor [3]) is reported as 0.00012 nM and the “EC50 hGIPR 0.1% HSA, cAMP in HEK-293 cells” value (human GIP receptor [3]) is reported as 0.00088 nM. For the same molecule, the “hGIPR EC50, cAMP in human adipocytes” value (human GIP receptor [4]) was 0.5 nM, the “hGIPR Emax, cAMP in human adipocytes” value (human GIP receptor [4]) was 116% and the IC50 (human GLP-1 receptor [5]) was 144 nM.
